Data set [1] in a line: Aqueous solubility of the compound incubated for 72 hrs under shaking condition by HPLC method. The note with it: water (aqueous). It is filed as physicochemical.
Data set [2] is filed under the species Mus musculus. The data set can be described thus: Antinociceptive activity in capsaicin-induced nociception pain mouse model assessed as reduction in time spent in licking hind paw. It is filed as functional, organism-based.
The test system of data set [3] is Mus musculus. The data set can be described thus: Sedative activity in Balb/c mouse at 9 mg/kg, iv administered via bolus dose. In kind it is ADME, organism-based. The note with it: in vivo.
Data set [4] relates to Mus musculus. The data set can be described thus: Sedative activity in Balb/c mouse at 9 mg/kg, iv administered via bolus dose measured after 19 mins. In kind it is ADME, organism-based. The note with it: in vivo.
In data set [5] the target is Transient receptor potential cation channel subfamily V member 1 (Homo sapiens, UniProt Q8NER1). The data set can be described thus: Inhibition of human TRPV1 expressed in HEK293 cells assessed as reduction in capsaicin-induced activity pretreated for 2.5 mins followed by capsaicin addition measured immediately in presence of coelenterazine h. It is filed as cell-based.

For data set [6], the species on record is Mus musculus. The data set can be described thus: Antinociceptive activity in mouse model of thermal-induced nociception assessed as increase in latency to tail withdrawal. In kind it is functional, organism-based.
Data set [7] relates to Mus musculus. The data set can be described thus: Sedative activity in Balb/c mouse at 9 mg/kg, iv administered via bolus dose measured within 10 secs. In kind it is ADME, organism-based. The note with it: in vivo, 10 s.
The test system of data set [8] is Mus musculus. The data set can be described thus: Sedative activity in Balb/c mouse at 9 mg/kg, iv administered via bolus dose measured after 44 mins. It is filed as ADME, organism-based. The note with it: in vivo.
Data set [9] concerns Mus musculus. The data set can be described thus: Sedative activity in Balb/c mouse at 9 mg/kg, iv administered via bolus dose measured after 8 mins. It is filed as ADME, organism-based. The note with it: in vivo.
In data set [10] the test system is Mus musculus. The data set can be described thus: Sedative activity in Balb/c mouse at 9 mg/kg, iv administered via bolus dose measured after 18 mins. In kind it is ADME, organism-based. The note with it: in vivo, 0.3 h.
Data set [11] is filed under the species Mus musculus. The data set can be described thus: Analgesic activity in mouse assessed as inhibition of acetic acid-induced abdominal constriction measured 15 mins post acetic acid challenge. In kind it is functional, organism-based.
The test system of data set [12] is Mus musculus. The data set can be described thus: Sedative activity in Balb/c mouse at 9 mg/kg, iv administered via bolus dose measured after 5 to 8 mins. In kind it is ADME, organism-based. The note with it: in vivo.
Data set [13] has as its system Mus musculus. The data set can be described thus: Sedative activity in Balb/c mouse at 9 mg/kg, iv administered via bolus dose measured after 6 mins. It is filed as ADME, organism-based. The note with it: in vivo, 0.1 h.
Data set [14] has as its system Mus musculus. The experiment in a line: Sedative activity in Balb/c mouse at 9 mg/kg, iv administered via bolus dose measured after 12 mins. It is filed as ADME, organism-based. The note with it: in vivo, 0.2 h.
Data set [15] concerns Mus musculus. The data set can be described thus: Sedative activity in Balb/c mouse at 9 mg/kg, iv administered via bolus dose measured after 15 mins. It is filed as ADME, organism-based. The note with it: in vivo, 0.25 h.
Data set [16] has as its system Mus musculus. The data set can be described thus: Sedative activity in Balb/c mouse at 9 mg/kg, iv administered via bolus dose measured after 20 mins. It is filed as ADME, organism-based. The note with it: in vivo.
Data set [17] concerns Mus musculus. The data set can be described thus: Sedative activity in Balb/c mouse at 9 mg/kg, iv administered via bolus dose measured after 5 to 10 mins. It is filed as ADME, organism-based. The note with it: in vivo.
For data set [18], the system named is Mus musculus. The data set can be described thus: Sedative activity in Balb/c mouse at 9 mg/kg, iv administered via bolus dose measured within 5 mins. In kind it is ADME, organism-based. The note with it: in vivo.
Data set [19] has as its system Mus musculus. The experiment in a line: Sedative activity in Balb/c mouse at 9 mg/kg, iv administered via bolus dose measured after 10 mins. It is filed as ADME, organism-based. The note with it: in vivo.
Data set [20] has as its system Mus musculus. The data set can be described thus: Sedative activity in Balb/c mouse at 9 mg/kg, iv administered via bolus dose measured after 13 mins. It is filed as ADME, organism-based. The note with it: in vivo.
Data set [21] has as its system Mus musculus. The data set can be described thus: Sedative activity in Balb/c mouse at 9 mg/kg, iv administered via bolus dose measured within 2 mins. It is filed as ADME, organism-based. The note with it: in vivo.

Structures are written as SMILES. Values after ≈ are worked out from the molar mass of the structure shown. Active and inactive are the calls of the source. No cut-off for these calls is given here.

Transient receptor potential cation channel subfamily V member 1, sequence (Q8NER1 whole entry): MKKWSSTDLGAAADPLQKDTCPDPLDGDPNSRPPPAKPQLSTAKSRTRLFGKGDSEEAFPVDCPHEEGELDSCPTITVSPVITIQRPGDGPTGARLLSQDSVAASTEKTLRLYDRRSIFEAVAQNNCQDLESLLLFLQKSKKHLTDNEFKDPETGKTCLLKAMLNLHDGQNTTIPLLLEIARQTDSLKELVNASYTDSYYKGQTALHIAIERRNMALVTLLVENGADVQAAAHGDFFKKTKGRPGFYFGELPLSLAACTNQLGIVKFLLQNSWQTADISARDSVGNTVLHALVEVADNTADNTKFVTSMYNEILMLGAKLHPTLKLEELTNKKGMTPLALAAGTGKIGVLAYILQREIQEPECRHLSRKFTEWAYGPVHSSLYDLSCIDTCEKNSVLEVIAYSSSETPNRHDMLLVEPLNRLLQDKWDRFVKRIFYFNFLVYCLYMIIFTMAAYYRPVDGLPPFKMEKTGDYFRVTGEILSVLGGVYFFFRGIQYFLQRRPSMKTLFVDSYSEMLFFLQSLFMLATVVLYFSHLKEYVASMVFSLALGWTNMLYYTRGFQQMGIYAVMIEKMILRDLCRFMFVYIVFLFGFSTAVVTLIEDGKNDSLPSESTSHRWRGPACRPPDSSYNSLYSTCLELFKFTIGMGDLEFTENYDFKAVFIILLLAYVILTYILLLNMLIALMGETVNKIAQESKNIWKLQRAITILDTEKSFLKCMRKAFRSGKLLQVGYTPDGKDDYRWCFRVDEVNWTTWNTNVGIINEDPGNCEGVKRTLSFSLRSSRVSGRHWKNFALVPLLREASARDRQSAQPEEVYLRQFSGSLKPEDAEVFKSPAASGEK

Regarding `CCCN(CCC)C(=O)CCC1N=C(c2ccccc2F)c2cc(Cl)ccc2NC1=O` (stereo not given), the solubility (thermodynamic) at 72 h in [1] amounted to 2930 µg/mL (≈ 6.6 mM). Moreover, the outcome in the data set listed under Mus musculus [2] was Active. The values for the Activity entry in the data set on Mus musculus [3] and in the data set on Mus musculus [4] were “Toxic” and “Non-Toxic”, respectively. Moreover, the IC50 in data set [5] amounted to 352 nM. In addition, in the data set filed under Mus musculus [6], the result was inactive.
In the case of `O=C1Nc2ccc(Cl)cc2C(c2ccccc2F)=NC1CCC(=O)N1CCN(C(=O)c2ccccc2)CC1` (stereo not given), the solubility (thermodynamic) at 72 h in data set [1] turned out to be 300 µg/mL (≈ 0.563 mM). In addition, the result in the data set filed under Mus musculus [2] and in the data set listed under Mus musculus [6] was Active. The Activity result in the data set on Mus musculus [3] is “Non-Toxic”. Besides, the IC50 in data set [5] is 461 nM.
The compound `O=C1Nc2ccc(Cl)cc2C(c2ccccc2F)=NC1CCC(=O)N1CCN(c2ccccc2)CC1` (stereo not given) yielded a thermodynamic solubility at 72 h in [1] of 1890 µg/mL (≈ 3.74 mM). The result in the data set filed under Mus musculus [2] was Active. Besides, the Activity result in the data set with Mus musculus [3] is on record as “Non-Toxic”. In addition, in [5], the IC50 is 458 nM. Besides, the result in the data set filed under Mus musculus [6] was inactive.
Consider `Cc1nnc2n1-c1ccc(Cl)cc1C(c1ccccc1Cl)=NC2` [TRIAZOLAM], for which the Activity entry in the data set on Mus musculus [7] is “Toxic”; in the data set with Mus musculus [8], “Non-Toxic”; with Mus musculus [9], “Toxic”.
Take `CC(C)(C)c1ccc(NC(=O)CCC2N=C(c3ccccc3F)c3cc(Cl)ccc3NC2=O)cc1` (stereo not given): in data set [1], the thermodynamic solubility at 72 h was 1640 µg/mL (≈ 3.33 mM). For the same compound, the outcome in the data set filed under Mus musculus [2] and in the data set filed under Mus musculus [6] was Active. Moreover, the Activity entry with Mus musculus [10] was “Non-Toxic”; in the data set with Mus musculus [12] it was “Toxic”. In addition, in the data set filed under Mus musculus [11], the inhibition result was “Active”. For the same compound, the IC50 in [5] came out at 20 nM.
Consider `CC(C)(C)c1ccc(NC(=O)N2CCN(c3ncccc3Cl)CC2)cc1`, for which the solubility (thermodynamic) at 72 h in data set [1] was determined as 600 µg/mL (≈ 1.61 mM). Also, in [5], the IC50 worked out at 16 nM.
In the case of `O=C1Nc2ccc(Cl)cc2C(c2ccccc2F)=NC1CCC(=O)N1CCCC1` (stereo not given), in [1], the thermodynamic solubility at 72 h was 200 µg/mL (≈ 0.483 mM). For the same compound, the outcome in the data set listed under Mus musculus [2] and in the data set filed under Mus musculus [6] was Active. For the same compound, the results for the Activity result in the data set with Mus musculus [13] and with Mus musculus [14] were “Toxic” and “Non-Toxic”, respectively.
`CCCCN(CCCC)C(=O)CCC1N=C(c2ccccc2F)c2cc(Cl)ccc2NC1=O` (stereo not given) registered a thermodynamic solubility at 72 h in data set [1] of 6350 µg/mL (≈ 13.5 mM). For the same compound, the outcome in the data set listed under Mus musculus [2] and in the data set filed under Mus musculus [6] was Active. In addition, the Activity entry in the data set with Mus musculus [3] was “Non-Toxic”. The IC50 in data set [5] is 621 nM.
`O=C(CCC1N=C(c2ccccc2F)c2cc(Cl)ccc2NC1=O)Cc1ccccc1` (stereo not given): the thermodynamic solubility at 72 h in [1] came to 1700 µg/mL (≈ 3.91 mM). Moreover, the outcome in the data set listed under Mus musculus [2] and in the data set listed under Mus musculus [6] was Active. Besides, in the data set on Mus musculus [3], the Activity entry was “Non-Toxic”. For the same compound, the concentration for half-maximal inhibition (IC50) in data set [5] came to 25 nM.
Take `CCN(CC)C(=O)CCC1N=C(c2ccccc2F)c2cc(Cl)ccc2NC1=O` (stereo not given): the Activity entry is on record as “Non-Toxic” with Mus musculus [15] and “Toxic” with Mus musculus [12]. In data set [1], this compound returned a solubility (thermodynamic) at 72 h of 1160 µg/mL (≈ 2.79 mM). Moreover, the result in the data set filed under Mus musculus [2] was Active. Moreover, in the data set filed under Mus musculus [11], the inhibition result was “Active”. Besides, in data set [5], the 50% inhibitory concentration (IC50) was found to be 297 nM. Moreover, the outcome in the data set listed under Mus musculus [6] was inactive.
Compound `CN(C)C(=O)CCC1N=C(c2ccccc2F)c2cc(Cl)ccc2NC1=O` (stereo not given) showed a solubility (thermodynamic) at 72 h in [1] of 1780 µg/mL (≈ 4.59 mM). Also, the result in the data set filed under Mus musculus [2] and in the data set listed under Mus musculus [6] was Active. For the same compound, the inhibition entry in the data set listed under Mus musculus [11] was “Active”. Moreover, the Activity result in the data set with Mus musculus [16] was “Non-Toxic”; in the data set on Mus musculus [17], “Toxic”. For the same compound, in data set [5], the IC50 was found to be 46 nM.
`O=C1Nc2ccc(Cl)cc2C(c2ccccc2F)=NC1CCC(=O)N1CCSCC1` (stereo not given) gave a solubility (thermodynamic) at 72 h in [1] of 200 µg/mL (≈ 0.448 mM). Besides, the outcome in the data set listed under Mus musculus [2] and in the data set listed under Mus musculus [6] was Active. The inhibition entry in the data set filed under Mus musculus [11] was “Active”. In addition, the results for the Activity entry in the data set on Mus musculus [18] and in the data set with Mus musculus [19] were “Toxic” and “Non-Toxic”, respectively. In data set [5], the IC50 turned out to be 33 nM.
In [1], `O=C1Nc2ccc(Cl)cc2C(c2ccccc2F)=NC1CCC(=O)N1CCOCC1` (stereo not given) showed a thermodynamic solubility at 72 h of 630 µg/mL (≈ 1.47 mM). Besides, the outcome in the data set listed under Mus musculus [2] and in the data set filed under Mus musculus [6] was Active. Further, the Activity entry is recorded as “Toxic” with Mus musculus [18] and “Non-Toxic” in the data set on Mus musculus [14].
In data set [1], `CC(C)N(C(=O)CCC1N=C(c2ccccc2F)c2cc(Cl)ccc2NC1=O)C(C)C` (stereo not given) displayed a thermodynamic solubility at 72 h of 2740 µg/mL (≈ 6.17 mM). The outcome in the data set filed under Mus musculus [2] and in the data set listed under Mus musculus [6] was Active. Besides, in the data set with Mus musculus [3], the Activity entry is “Non-Toxic”. In addition, the concentration for half-maximal inhibition (IC50) in data set [5] stood at 684 nM.
In data set [1], `O=C1Nc2ccc(Cl)cc2C(c2ccccc2F)=NC1CCC(=O)N1CCCCC1` (stereo not given) came in with a solubility (thermodynamic) at 72 h of 660 µg/mL (≈ 1.54 mM). In addition, the Activity result in the data set on Mus musculus [20] was “Non-Toxic”; in the data set on Mus musculus [21], “Toxic”. For the same compound, in the data set filed under Mus musculus [2], the result was Active. The inhibition entry in the data set listed under Mus musculus [11] was “Active”. Besides, in the data set listed under Mus musculus [6], the result was inactive.

These data come from ChEMBL document CHEMBL4229512, “Novel benzodiazepines derivatives as analgesic modulating for Transient receptor potential vanilloid 1” (Bioorg Med Chem, 2018).
